Data: PubChem BioAssay AID624443 (The Scripps Research Institute Molecular Screening Center, 2012)
The source made the active and inactive calls.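 The calls were made as follows: active = inhibition of 30% or more at 50 µM, though no compound was called active; inactive = inhibition below 30% at 50 µM.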

Biological target: Serine/threonine-protein phosphatase 2A catalytic subunit alpha isoform (Bos taurus) (UniProt P67774)
Assay: inhibitors of bovine PP2A histone dephosphorylation – biochemical, bovine brain PP2A, 33P-phosphohistone, single concentration, round 5, selectivity assay for PP5 inhibitor project, late-stage follow-up (AID 624443)
Details: purified bovine PP2A, 33P-phosphohistone dephosphorylation, scintillation; at 50 µM; active compounds read high

Chain of Serine/threonine-protein phosphatase 2A catalytic subunit alpha isoform (Bos taurus) (P67774 whole entry, looked up, canonical isoform): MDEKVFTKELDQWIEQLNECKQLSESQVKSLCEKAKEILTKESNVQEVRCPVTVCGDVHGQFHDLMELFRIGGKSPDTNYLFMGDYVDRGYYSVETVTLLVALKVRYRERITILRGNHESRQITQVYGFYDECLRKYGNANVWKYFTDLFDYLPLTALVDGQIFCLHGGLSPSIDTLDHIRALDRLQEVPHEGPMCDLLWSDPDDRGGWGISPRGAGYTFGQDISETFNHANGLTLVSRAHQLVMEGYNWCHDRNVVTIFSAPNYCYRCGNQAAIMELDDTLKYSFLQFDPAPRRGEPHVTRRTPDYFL

inhibition, inactive:
COc1cccc(-c2n[nH]nc2C(=O)O)c1 3.7%
O=C(O)c1n[nH]nc1-c1cccc(F)c1 1.89%
COc1ccccc1-c1n[nH]nc1C(=O)O 24.7%
O=C(O)c1n[nH]nc1-c1ccccc1O 0.275%
O=C(O)c1n[nH]nc1-c1ccccc1F 3.76%
COc1ccc(-c2n[nH]nc2C(=O)O)cc1 -5.38%
O=C(O)c1n[nH]nc1-c1ccc(F)cc1 -0.575%
